Tested on: HepG2
Assay: Toxicity assay (MTS/MTT dye), HepG2 cells
Details: HepG2, three day-incubation (Table 1)
Protocol: After a three day-incubation for HepG2, or 5 days for human PBM cells, cell viability and mitochondrial activity were measured in a colorimetric assay using the MTS- or MTT dye method (Promega, Madison, Wis.).

SMILES	Cytotoxicity HepG2 IC30 [µM]
Nc1ccn([C@@H]2S[C@H](CO)C=C2F)c(=O)n1 [Compound D-17, (−)-1-[(1S,4R)-2,3-dideoxy-2,3-didehydro-2-fluoro4-thio-β-D-ribofuranosyl]-cytosine]	>100
Nc1nc(=O)n([C@@H]2S[C@H](CO)C=C2F)cc1F [Compound D-18, (−)-1-[(1S,4R)-2,3-dideoxy-2,3-didehydro-2-fluoro-4-thio-β-D-ribofuranosyl]-5-fluorocytosine]	>100

Same assay, conditions: read-out: Cytotoxicity HepG2 IC50; HepG2, three day-incubation (Table 3)

SMILES	IC50 [µM]
Nc1ccn([C@@H]2S[C@H](CO)C=C2F)c(=O)n1 [Compound D-17, (−)-1-[(1S,4R)-2,3-dideoxy-2,3-didehydro-2-fluoro4-thio-β-D-ribofuranosyl]-cytosine]	> 100
Nc1nc(=O)n([C@@H]2S[C@H](CO)C=C2F)cc1F [Compound D-18, (−)-1-[(1S,4R)-2,3-dideoxy-2,3-didehydro-2-fluoro-4-thio-β-D-ribofuranosyl]-5-fluorocytosine]	> 100

Tested on: HIV-1 LAI (wild type)
Assay: HIV-1 RT-assay on supernatant of acutely infected human PBM cells, strain LAI
Assay type: cell-based
Details: 5 days, RT activity reduced by 90%
Protocol: (§1) Human PBM cells (1×10^6 cells/T25 flask) were PHA stimulated for 2 or 3 days, and infected with either a wild type (LAI and xxBRU) or a 3TC-resistant (xxBRU 184V) HIV-1 strain at 100 TCID50, as previously described (27). The culture was kept for 5 days in presence of test compounds at serial 1-log dilutions. Subsequently, human PBM cells were removed from the culture supernatant by centrifugation (10 minutes, 400×g, 4° C.). This clarified supernatant was tested either in the RT-assay, or in the Q-RT-PCR assay.
(§2) Virus particles present in a 1 mL aliquot of culture supernatant were concentrated by high-speed centrifugation (2 hours, 20,000×g, 4° C.). The supernatant was then removed and the virus pellet was dispensed into a 100 μL virus solubilization buffer (VSB: 0.5% Triton X-100; 0.8 M NaCl, 0.5 mM phenylmethylsulfonyl, 20% glycerol, 50 mM Tris.HCl pH 7.8). A 10 μL aliquot of RT-VSB was mixed with 75 μL RT cocktail (60 mM Tris.HCl pH 7.8, 12 mM MgCl2, 6 mM DTT, 6 μg/mL poly (rA)n-oligo (dT)10-12, 1.2 mM dATP, and 80 μCi/mL 3H-TTP) and incubated for 2 hours at 37° C. Subsequently 100 μL of 10% TCA was added, and the total amount of incorporated 3H-TTP was determined.
(§3) HIV-1 present in culture supernatant fluids was quantified by two different methodologies: i) the Q-RT-PCR with read-out in log copies/mL; and ii) the endogenous viral RT assay on cell supernatant with read-out in log counts per minute/mL (CPM/mL). Upon addition of antiviral compounds to the culture media, a dose-related decrease in virus production was observed. Although the two methodologies measured different parameters (viral RNA versus active RT enzyme), results were not markedly different from each other. The HIV-1 Q-RT-PCR results were compared with a previously established cell-based antiviral drug evaluation assay (endogenous HIV-1 RT polymerization activity in cell supematant)(27).

SMILES	EC90 [µM]
Nc1ccn([C@@H]2S[C@H](CO)C=C2F)c(=O)n1 [Compound D-17, (−)-1-[(1S,4R)-2,3-dideoxy-2,3-didehydro-2-fluoro4-thio-β-D-ribofuranosyl]-cytosine]	11.9
Nc1nc(=O)n([C@@H]2S[C@H](CO)C=C2F)cc1F [Compound D-18, (−)-1-[(1S,4R)-2,3-dideoxy-2,3-didehydro-2-fluoro-4-thio-β-D-ribofuranosyl]-5-fluorocytosine]	> 100

Tested on: 3TC-resistant (xxBRU 184V) HIV-1
Assay: HIV-1 RT-assay on supernatant of acutely infected human PBM cells, strain xxBRU 184V
Assay type: cell-based
Details: RT-assay
Protocol: as §1, §2, §3

SMILES	RT-Assay FI, fold increase (EC90 HIV-1184V/EC90 HIV-1xxBRU)
Nc1ccn([C@@H]2S[C@H](CO)C=C2F)c(=O)n1 [Compound D-17, (−)-1-[(1S,4R)-2,3-dideoxy-2,3-didehydro-2-fluoro4-thio-β-D-ribofuranosyl]-cytosine]	25.0

Same assay, conditions: human PBM cells, 5 days, RT activity reduced by 90%; read-out: RT-Assay 184V EC90

SMILES	EC90 [µM]
Nc1ccn([C@@H]2S[C@H](CO)C=C2F)c(=O)n1 [Compound D-17, (−)-1-[(1S,4R)-2,3-dideoxy-2,3-didehydro-2-fluoro4-thio-β-D-ribofuranosyl]-cytosine]	125
Nc1nc(=O)n([C@@H]2S[C@H](CO)C=C2F)cc1F [Compound D-18, (−)-1-[(1S,4R)-2,3-dideoxy-2,3-didehydro-2-fluoro-4-thio-β-D-ribofuranosyl]-5-fluorocytosine]	> 100

Tested on: 3TC-resistant (xxBRU 184V) HIV-1
Assay: HIV-1 Q-RT-PCR assay in human PBM cells, strain xxBRU 184V
Assay type: cell-based
Details: Q-RT-PCR
Protocol: as §1
Viral RNA present in the culture supernatant was prepared using commercially available columns (QIAamp Viral RNA mini Kit, Qiagen, Valencia, Calif.). Viral RNA was detected in real-time by monitoring increases in fluorescence signal that resulted from degradation of a quenched fluorescent probe molecule following the hybridization of the probe to the arnplified viral DNA (TaqMan 7700 chemistry, Applied Biosystems, Foster City, Calif.). The TaqMan probe and primers were designed using the Primer Express software (Applied Biosystems); they cover highly conserved sequences complementary to an 81 base pair long fragment from the HIV-1 RT gene between codon 230 and 257 of the group MHIV-1 genome; • probe 5′-6FAM-[…]-TAMRA-3′ (Sequence 1) • sense primer: 5′-[…]-3′ (Sequence 2); and • antisense primer 5′-[…]-3′ (Sequence 3).
A total of 5 μL RNA was RT-amplified using reagents and conditions as described by the manufacturer (Applied Biosystems). […] Copy numbers were calibrated using the Roche Amplicor HIV-1 Monitor test™ (Roche Diagnostics, Branchburg, N.J.) on a 1-log dilution series of a clinical HIV-1 genotype B isolate (attenuated in vitro to obtain a high viral load). The 10-6 diluted sample became positive at threshold cycle (Ct=PCR cycle threshold where a sample becomes detectable)=35.52, which corresponded to 1,410 copies/mL in the Roche monitor HIV-1 version II assay. When validated over a dynamic range of 3 logs of virus, there was excellent correlation (r2˜1) between the two methodologies. […] Therefore, the currently designed primer and probe set allowed reliable quantification of both clinical samples and HIV-1 in vitro preparations.
as §3

SMILES	Q-RT-PCR HIV-1 assay FI, fold increase (EC90 HIV-1184V/EC90 HIV-1xxBRU)
Nc1ccn([C@@H]2S[C@H](CO)C=C2F)c(=O)n1 [Compound D-17, (−)-1-[(1S,4R)-2,3-dideoxy-2,3-didehydro-2-fluoro4-thio-β-D-ribofuranosyl]-cytosine]	12.8

Same assay, conditions: human PBM cells, 5 days, viral RNA reduced by 90%; read-out: Q-RT-PCR HIV-1 assay 184V EC90

SMILES	EC90 [µM]
Nc1ccn([C@@H]2S[C@H](CO)C=C2F)c(=O)n1 [Compound D-17, (−)-1-[(1S,4R)-2,3-dideoxy-2,3-didehydro-2-fluoro4-thio-β-D-ribofuranosyl]-cytosine]	65.8
Nc1nc(=O)n([C@@H]2S[C@H](CO)C=C2F)cc1F [Compound D-18, (−)-1-[(1S,4R)-2,3-dideoxy-2,3-didehydro-2-fluoro-4-thio-β-D-ribofuranosyl]-5-fluorocytosine]	> 100

Tested on: HBV
Assay: HBV Q-PCR assay in HepAD38 (AD38) cells
Assay type: cell-based, hepatitis B virus
Details: AD38 cells, 5-day incubation, HBV DNA in supernatant; read-out: HBV assay Q-PCR EC90
Protocol: The HepAD38 cell line replicates HBV under conditions that can be regulated with tetracycline (12, 15). In the presence of this drug, the cell supernatant is virtually free of viral DNA, but upon the removal of tetracycline from the culture medium, these cells secrete virus-like particle into the supernatant (12). HepAD38 cells were seeded at 5×10^4 cells/well in a 96-well plate in seeding medium (DMEM/F12+10% FBS, 50 μg/mL penicillin, 50 μg/mL streptomycin, 100 μg/mL kanamycin, 400 μg/mL G418, and 0.3 μg/mL tetracycline) and incubated for 2 days at 37° C. in a 5% CO2 humid atmosphere. The seeding media was removed, and cells were washed 3 times with PBS. Cells were then incubated with 200 μL assay medium (DMEM/F12+10% FBS+P/S/K) containing either no compound, test compound, or control drugs at 10 μM. After a 5-day incubation, the cell supernatant was collected and stored at −70° C. until HBV DNA was quantified. HBV DNA was extracted from supernatant using QiaAmp DNA blood Mini kit (Qiagen) and nucleic acids eluted in 200 μL. Viral DNA was detected in Q-PCR. The TaqMan probe and primers were designed using the Primer Express software (Applied Biosystems) and cover highly conserved sequences complementary to the DNA sequences present in HBsAg (24). A total of 5 μL DNA was amplified using reagents and conditions as described by the manufacturer (Applied Biosystems). […]

SMILES	EC90 [µM]
Nc1ccn([C@@H]2S[C@H](CO)C=C2F)c(=O)n1 [Compound D-17, (−)-1-[(1S,4R)-2,3-dideoxy-2,3-didehydro-2-fluoro4-thio-β-D-ribofuranosyl]-cytosine]	> 100
Nc1nc(=O)n([C@@H]2S[C@H](CO)C=C2F)cc1F [Compound D-18, (−)-1-[(1S,4R)-2,3-dideoxy-2,3-didehydro-2-fluoro-4-thio-β-D-ribofuranosyl]-5-fluorocytosine]	> 100

Tested on: BVDV (strain NADL)
Assay: BVDV Q-RT-PCR assay in MDBK cells
Assay type: cell-based, bovine viral diarrhea virus
Details: MDBK cells, 24 hour incubation, viral RNA in supernatant; read-out: BVDV assay Q-PCR EC90
Protocol: Madin-Darby Bovine Kidney (MDBK) cells were maintained in DMEM/F12 supplemented with 10% heat-inactivated horse serum at 37° C. in a humidified, 5% CO2 atmosphere. Cells were seeded in 96-well plates at 5×10^3 cells/wcll and incubated for 1 hour. BVDV (strain NADL) was used to infect the cells in monolayer at MOI 0.02. After 45 minutes of infection, the viral inoculum was removed and the cells were washed twice. Media or media containing test compound was added to these cells, followed by 24 hour incubation. Cell supernatant fluids were collected, clarified by centrifugation (2 minutes, 3,000 g, room temperature) and viral RNA was prepared (QIAamp Viral RNA mini Kit, Qiagen). Viral RNA was detected in real-time RT-PCR.

SMILES	EC90 [µM]
Nc1ccn([C@@H]2S[C@H](CO)C=C2F)c(=O)n1 [Compound D-17, (−)-1-[(1S,4R)-2,3-dideoxy-2,3-didehydro-2-fluoro4-thio-β-D-ribofuranosyl]-cytosine]	> 200
Nc1nc(=O)n([C@@H]2S[C@H](CO)C=C2F)cc1F [Compound D-18, (−)-1-[(1S,4R)-2,3-dideoxy-2,3-didehydro-2-fluoro-4-thio-β-D-ribofuranosyl]-5-fluorocytosine]	> 200

— US6949522B2, “β-2′- or 3′-halonucleosides” (Pharmasset, Inc., priority 2001, dated 2005)
